According to patent US20220395539A1, “TRADITIONAL CHINESE MEDICINE COMPOSITION FOR TREATING PSORIASIS, PREPARATION METHOD THEREFOR AND USE THEREOF” (priority 2019, published 2022):

System: mice psoriasis-like skin lesion model induced by imiquimod
Test: mice psoriasis-like skin lesion model induced by imiquimod
Format: in vivo, C57BL/6 mice
Set-up: Pathological score Epidermal cell keratinization / Pathological score Dermal thickness / Pathological score Total score: scale not given here
Conditions: methotrexate 1 mg/kg
Experimental: II. Pharmacodynamic Experiment of the Medicine Composition of the Present Application on Mice Psoriasis-Like Skin Lesion Model Induced by Imiquimod. Researching subjects: […] (2015000562136). The mice were fed with standard diet and the animal room was kept at the temperature of 23±2° C. and the humidity of 40% to 70%. […] The medium-dosage group of 9-ingredient macules-eliminating prescription: clinical equivalent dose. The low-dosage group of 9-ingredient macules-eliminating prescription: the dosage in the low-dosage group was ¼ of that in the high-dosage group. [table] Modeling method and treatment: […] Clinical symptoms: observe any clinical symptoms of each animal at the beginning and during the experiment. Any abnormal response should be recorded. […] PASI method: photos of the skin lesions were taken every day, and the erythema, scales and infiltration thickening degree at the skin lesions were scored, and the three scores were added up to obtain the total scores. […] End of experiment: after the experiment, the animals were sacrificed by CO2 deep anesthesia, and the corresponding tissues were collected. Statistics of data: the experimental data are expressed by Mean±SD, and the data between two groups are tested by T test, P<0.05 is considered as significant difference.

[1] = Yujinyinxie tablet 0.72 g/kg, i.g. Qd
[2] = Yujinyinxie tablet 0.72 g/kg, i.g. Qd 7 days

effect on the weight compared with the model group (gavage 7 days, 9-ingredient 11.24, 5.62 and 2.81 g extract/kg): reduced the weight | BW Day l [1]: 20.29 ± 0.68 g | BW Day 8 [2]: 17.99 ± 2.71 g
SMILES: CN(Cc1cnc2nc(N)nc(N)c2n1)c1ccc(C(=O)N[C@@H](CCC(=O)O)C(=O)O)cc1 [Methotrexate, methotrexate]
Severity index Day 4 (total score of skin lesion, PASI method) [1]: 1.65 ± 0.58 | Severity index Day 5 (total score of skin lesion, PASI method) [1]: 2.20 ± 0.48 | Severity index Day 6 (total score of skin lesion, PASI method) [1]: 1.90 ± 0.39 | Severity index Day 7 (total score of skin lesion, PASI method) [1]: 3.60 ± 0.63 | Pathological score Dermal inflammatory cells infiltration degree [2]: 1.10 ± 0.32, | Pathological score Dermal thickness [2]: 1.50 ± 0.53 | Pathological score Epidermal cell keratinization [2]: 1.60 ± 0.84 | Pathological score Epidermal thickness [2]: 1.60 ± 0.52, | Pathological score Total score [2]: 5.80 ± 1.14 | Severity index Day 8 (total score of skin lesion, PASI method) [2]: 3.05 ± 1.82
